Measurements reported in patent US7235570B2, “1,4-dihydropyridine and pyridine compounds as calcium channel blockers” (Vittal Mallya Scientific Research, priority 2002, dated 2007).

Molecular target: T1, T-type calcium channels (α1G) (Homo sapiens, UniProt O43497)
T1 construct: expressed in transfected cells
Assay: T-type calcium channel block, whole-cell voltage clamp in HEK293 cells
Type: cell-based
Conditions: α1G stably expressed in HEK293 cells, step to −30 mV from holding potential −110 mV
Procedure: T-type calcium channels (α1G) were stably expressed in HEK293 cells and maintained at 37° C. in DMEM. Cells were released from dishes using trypsin and EGTA or Accutase and studied within 4 hours of isolation. Individual cells were placed on the stage of an inverted microscope and patched with pipettes pulled from aluminasilicate glass capillary tubes, which had resistances of 0.8-1.5 Mohm. Currents were recorded using an Axopatch 200 (Axon Instruments, Inc.) and pClamp data acquisition software (8.1). The pipette solution contained (in mM): KCl 130, EGTA 11, HEPES 10, MGATP 5, pH ═7.4. The bath solution contained (in mM): NaCl 140, CaCl2 1, HEPES 10, pH═7.4. Test compounds were diluted into bath solution to the desired concentration (100 nM-10 μM) from a stock solutions (3 or 10 mM in DMSO). Current measurements were made at 20-23° C. Cells were held at −110 mV in order to maximize occupancy in the closed state and depolarized for 100 ms to various potentials. Currents were capacity corrected using 16-64 subthreshold responses (voltage steps of 10 or 20 mV) and leak subtracted, based on linear interpolation between the current at the holding potential and 0 mV. Cells were moved from a control chamber to a chamber with test compound and the effect of the drug was assessed using a voltage clamp protocol that stepped to −30 mV for 100 ms from a holding potential of −110 mV once every 5 s. After each 10-13 minutes, the train protocol was interrupted and a full current voltage relationship obtained. In general for each compound, four cells were studied for a minimum of 13 minutes, two in drug at 500 nM and two at 1 μM. In some cases other concentrations were also studied. Data were analyzed using Matlab (Mathworks, Natick, Mass.). Drug efficacy was estimated using the relationship: Blocked Fraction=[Drug]/(IC50+[Drug])

T1 sequence (O43497 whole entry): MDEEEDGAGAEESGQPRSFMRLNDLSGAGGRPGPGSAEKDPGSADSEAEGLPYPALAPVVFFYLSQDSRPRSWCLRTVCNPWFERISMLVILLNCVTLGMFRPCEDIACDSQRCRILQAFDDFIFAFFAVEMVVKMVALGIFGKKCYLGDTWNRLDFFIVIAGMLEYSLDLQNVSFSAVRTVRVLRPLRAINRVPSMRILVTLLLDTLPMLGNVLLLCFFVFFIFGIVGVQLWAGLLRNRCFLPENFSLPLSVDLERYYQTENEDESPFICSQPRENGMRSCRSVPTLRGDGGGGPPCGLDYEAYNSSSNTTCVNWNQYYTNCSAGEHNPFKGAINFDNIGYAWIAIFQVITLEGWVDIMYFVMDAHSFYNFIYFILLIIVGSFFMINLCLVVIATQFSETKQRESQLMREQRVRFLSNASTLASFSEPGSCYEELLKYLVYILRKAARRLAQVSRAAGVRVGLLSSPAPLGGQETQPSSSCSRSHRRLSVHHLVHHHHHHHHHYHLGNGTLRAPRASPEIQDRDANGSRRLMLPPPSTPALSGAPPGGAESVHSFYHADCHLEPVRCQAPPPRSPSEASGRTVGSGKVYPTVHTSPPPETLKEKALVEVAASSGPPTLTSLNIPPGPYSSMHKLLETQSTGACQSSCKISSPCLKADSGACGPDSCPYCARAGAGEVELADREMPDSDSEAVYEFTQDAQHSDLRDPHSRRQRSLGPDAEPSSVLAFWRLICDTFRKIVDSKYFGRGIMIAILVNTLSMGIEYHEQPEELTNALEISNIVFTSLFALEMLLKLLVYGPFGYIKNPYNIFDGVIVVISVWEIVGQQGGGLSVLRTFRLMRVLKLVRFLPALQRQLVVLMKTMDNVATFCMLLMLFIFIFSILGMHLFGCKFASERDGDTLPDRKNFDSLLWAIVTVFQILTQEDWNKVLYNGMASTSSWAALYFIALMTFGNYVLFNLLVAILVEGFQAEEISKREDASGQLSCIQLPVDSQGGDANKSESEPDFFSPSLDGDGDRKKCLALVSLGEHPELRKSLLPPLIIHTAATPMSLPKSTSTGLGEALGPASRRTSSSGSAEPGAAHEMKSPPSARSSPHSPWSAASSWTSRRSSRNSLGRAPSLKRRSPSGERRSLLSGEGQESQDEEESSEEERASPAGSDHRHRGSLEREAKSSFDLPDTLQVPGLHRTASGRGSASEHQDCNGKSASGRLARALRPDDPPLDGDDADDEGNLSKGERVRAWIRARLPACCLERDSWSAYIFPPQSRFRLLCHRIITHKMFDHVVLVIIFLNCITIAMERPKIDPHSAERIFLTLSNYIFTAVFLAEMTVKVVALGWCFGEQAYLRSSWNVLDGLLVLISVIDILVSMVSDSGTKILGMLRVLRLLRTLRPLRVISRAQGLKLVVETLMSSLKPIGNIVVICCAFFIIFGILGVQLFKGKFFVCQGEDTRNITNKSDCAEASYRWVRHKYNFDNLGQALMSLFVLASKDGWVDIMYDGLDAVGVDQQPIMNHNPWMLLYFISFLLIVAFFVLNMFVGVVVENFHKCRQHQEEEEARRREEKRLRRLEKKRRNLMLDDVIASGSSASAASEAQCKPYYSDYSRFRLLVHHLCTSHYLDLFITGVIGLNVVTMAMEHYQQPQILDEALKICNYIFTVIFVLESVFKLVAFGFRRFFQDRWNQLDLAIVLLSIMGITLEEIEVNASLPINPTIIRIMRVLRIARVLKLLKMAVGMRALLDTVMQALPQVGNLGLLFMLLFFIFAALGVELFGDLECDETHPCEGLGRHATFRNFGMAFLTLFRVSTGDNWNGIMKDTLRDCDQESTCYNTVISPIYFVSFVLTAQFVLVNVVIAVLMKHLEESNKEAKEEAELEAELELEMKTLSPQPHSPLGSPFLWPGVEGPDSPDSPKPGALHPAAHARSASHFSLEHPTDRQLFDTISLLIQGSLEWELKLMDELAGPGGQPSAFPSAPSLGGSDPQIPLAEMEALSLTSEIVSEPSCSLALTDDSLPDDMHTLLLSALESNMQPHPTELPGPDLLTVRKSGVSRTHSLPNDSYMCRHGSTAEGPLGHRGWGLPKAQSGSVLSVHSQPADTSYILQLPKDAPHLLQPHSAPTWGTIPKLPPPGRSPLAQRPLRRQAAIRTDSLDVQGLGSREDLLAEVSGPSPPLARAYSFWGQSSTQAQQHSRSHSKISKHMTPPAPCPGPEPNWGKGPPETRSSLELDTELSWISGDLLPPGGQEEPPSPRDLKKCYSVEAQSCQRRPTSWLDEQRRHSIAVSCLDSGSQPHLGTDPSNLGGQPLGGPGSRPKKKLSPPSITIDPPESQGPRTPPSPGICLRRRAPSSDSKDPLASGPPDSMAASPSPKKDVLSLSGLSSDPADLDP

% of calcium channels blocked (1 μM of comp'd) | % of calcium channels blocked (500 nM of comp'd) | Compound
80% | – | CCCCCCCCCCCCCCCc1cccc(OC(C)C)c1C1C(C(=O)OC)=C(C)NC(C)=C1C(=O)OC [DHP-5, dimethyl 1,4-dihydro-4-(2′-isopropoxy-6′-pentadecylphenyl)-2,6-dimethyl-3,5-pyridine dicarboxylate]
90% | 75% | COCC(=O)O[C@]1(CCN(C)CCCc2nc3ccccc3[nH]2)CCc2cc(F)ccc2[C@@H]1C(C)C [Mibefradil]
15% | 0% | COC(=O)C1=C(C)NC(C)=C(C(=O)OC)C1c1ccccc1[N+](=O)[O-] [Nifedipine]
77% | 5% | CCCCCCCCCCCCCCCc1cccc(OCC)c1C1C(C(=O)OCC)=C(C)NC(C)=C1C(=O)OC(C)C (stereo not shown) [DHP-12, ethyl isopropyl 1,4-dihydro-4-(2′-ethoxy-6′-pentadecylphenyl)-2,6-dimethyl-3,5-pyridine dicarboxylate]
